Measured values reported in ChEMBL document CHEMBL1131648, “Derivatization of soyasapogenol A and their hepatoprotective activities” (1998).

Columns and labels:
HepG2 [1] = assay: Hepatoprotective activity against aflatoxin B1 (10e-5 M) induced Hep G2 cells at a dose of 10 ug/ml; format: functional, Homo sapiens
HepG2 [2] = assay: Hepatoprotective activity against aflatoxin B1 (10e-5 M) induced Hep G2 cells at a dose of 20 ug/ml; format: functional, Homo sapiens

| SMILES | Protection (HepG2 [1]) | Protection (HepG2 [2]) |
| --- | --- | --- |
| CO[C@@H]1[C@H](O)C(C)(C)C[C@H]2C3=CCC4[C@@]5(C)CC[C@H](O)[C@](C)(CO)C5CC[C@@]4(C)[C@]3(C)CC[C@@]12C (stereo partly drawn) | 20% |  |
| CC(=O)OC[C@]1(C)C2CC[C@]3(C)C(CC=C4[C@@H]5CC(C)(C)[C@@H](O)[C@@H](O)[C@]5(C)CC[C@]43C)[C@@]2(C)CC[C@@H]1OC(C)=O (stereo partly drawn) | 0% |  |
| CC1(C)C[C@H]2C3=CC[C@@H]4[C@@]5(C)CC[C@H](O)[C@](C)(CO)[C@@H]5CC[C@@]4(C)[C@]3(C)CC[C@@]2(C)[C@@H](O)[C@@H]1O | 0% |  |
| CC1(C)[C@@H](O[C@H]2O[C@H](C(=O)O)[C@@H](O)[C@H](O)[C@H]2O[C@@H]2O[C@H](C(=O)O)[C@@H](O)[C@H](O)[C@H]2O)CC[C@]2(C)[C@H]3C(=O)C=C4[C@@H]5C[C@@](C)(C(=O)O)CC[C@]5(C)CC[C@@]4(C)[C@]3(C)CC[C@@H]12 [GLYCYRRHIZIN] |  | 15% |
| CC1(C)C[C@H]2C3=CCC4[C@@]5(C)CC[C@H](O)[C@](C)(CO)C5CC[C@@]4(C)[C@]3(C)CC[C@@]2(C)C(=O)[C@@H]1O (stereo partly drawn) | 107% |  |
| CC(=O)O[C@H]1[C@@H](O)[C@]2(C)CC[C@]3(C)C(=CCC4[C@@]5(C)CC[C@H](O)[C@](C)(CO)C5CC[C@]43C)[C@@H]2CC1(C)C (stereo partly drawn) | 25% |  |
| CO[C@@H]1[C@H](OC)C(C)(C)C[C@H]2C3=CCC4[C@@]5(C)CC[C@H](O)[C@](C)(CO)C5CC[C@@]4(C)[C@]3(C)CC[C@@]12C (stereo partly drawn) | 0% |  |
| CC1(C)C[C@@H](O)[C@]2(C)CC[C@]3(C)C(=CCC4[C@@]5(C)CC[C@H](O)[C@](C)(CO)C5CC[C@]43C)[C@@H]2C1 (stereo partly drawn) | 14% |  |
| CC1(C)C[C@H]2C3=CCC4[C@@]5(C)CC[C@H](O)[C@](C)(CO)C5CC[C@@]4(C)[C@]3(C)CC[C@@]2(C)C[C@@H]1O (stereo partly drawn) | 25% |  |
| CC(=O)O[C@@H]1[C@H](OC(C)=O)C(C)(C)C[C@H]2C3=CCC4[C@@]5(C)CC[C@H](O)[C@](C)(CO)C5CC[C@@]4(C)[C@]3(C)CC[C@@]12C (stereo partly drawn) | 0% |  |
| COC[C@]1(C)C2CC[C@]3(C)C(CC=C4[C@@H]5CC(C)(C)[C@@H](O)[C@@H](O)[C@]5(C)CC[C@]43C)[C@@]2(C)CC[C@@H]1OC (stereo partly drawn) | 7% |  |
| CC1(C)C[C@H]2C3=CC[C@@H]4[C@@]5(C)CC[C@H](O)[C@](C)(CO)[C@@H]5CC[C@@]4(C)[C@]3(C)CC[C@@]2(C)[C@H](O)[C@@H]1O [SOYASAPOGENOL A] | 0% |  |
| CO[C@H]1[C@@H](O)[C@]2(C)CC[C@]3(C)C(=CCC4[C@@]5(C)CC[C@H](O)[C@](C)(CO)C5CC[C@]43C)[C@@H]2CC1(C)C (stereo partly drawn) | 8% |  |
| CC1(C)C[C@H]2C3=CC[C@@H]4[C@@]5(C)CC[C@H](O)[C@](C)(CO)[C@@H]5CC[C@@]4(C)[C@]3(C)CC[C@@]2(C)[C@H](O)[C@H]1O | 0% |  |
| CC1(C)C[C@H]2C3=CC[C@@H]4[C@@]5(C)CC[C@H](O)[C@](C)(CO)[C@@H]5CC[C@@]4(C)[C@]3(C)CC[C@@]2(C)[C@@H](O)[C@H]1O | 8% |  |
| CC1(C)C[C@H]2C3=CCC4[C@@]5(C)CC[C@H](O)[C@](C)(CO)C5CC[C@@]4(C)[C@]3(C)CC[C@@]2(C)C[C@H]1O (stereo partly drawn) | 0% |  |
| CC1(C)C[C@H]2C3=CCC4[C@@]5(C)CC[C@H](O)[C@](C)(CO)C5CC[C@@]4(C)[C@]3(C)CC[C@@]2(C)CC1=O (stereo partly drawn) | 37% |  |
| CC1(C)C[C@H]2C3=CCC4[C@@]5(C)CC[C@H](O)[C@](C)(CO)C5CC[C@@]4(C)[C@]3(C)CC[C@@]2(C)C(=O)C1=O (stereo partly drawn) | 131% |  |
